Where two headings read alike, the source gives them in different places.
Tests used:
[1] = system: strains of A. baumannii and one strain of Acinetobacter sp.; assay: MIC with sub-inhibitory concentrations (0.25x MIC) of polymyxin B, panel of Acinetobacter strains (Example 4); format: cell-based
[2] = system: A. baumannii ATCC 19606; assay: MIC without and with sub-inhibitory polymyxin B (Example 4); format: cell-based, Acinetobacter baumannii; settings: for MIC without PB/MIC + PB: A. baumannii ATCC 19606; for MIC: Acinetobacter baumannii
[3] = system: A. baumannii ATCC 19606; assay: Preliminary MBC without and with sub-inhibitory polymyxin B (Example 4); format: cell-based, Acinetobacter baumannii; settings: Acinetobacter baumannii
[4] = system: A. baumannii J2; assay: MIC without and with sub-inhibitory polymyxin B (Example 4); format: cell-based, Acinetobacter baumannii; settings: for MIC without PB/MIC + PB: A. baumannii J2
[5] = system: A. baumannii J2; assay: Preliminary MBC without and with sub-inhibitory polymyxin B (Example 4); format: cell-based, Acinetobacter baumannii; settings: Acinetobacter baumannii, J2, read-out: MBC +[…] PB, A. baumannii J2; +[…] polymyxin B; preliminary MBC; 1st experiment
[6] = system: Acinetobacter sp. (H064200250); assay: MIC without and with sub-inhibitory polymyxin B (Example 4); format: cell-based
[7] = system: A. baumannii A329; assay: as above; format: cell-based, Acinetobacter baumannii; settings: +0.06 μg/ml PB, 2nd experiment
[8] = system: A. baumannii A329; assay: Preliminary MBC without and with sub-inhibitory polymyxin B (Example 4); format: cell-based, Acinetobacter baumannii; settings: Acinetobacter baumannii, A329, A. baumannii A329, +0.06 μg/ml PB, 2nd experiment, read-out: MBC
[9] = system: A. baumannii A390; assay: MIC without and with sub-inhibitory polymyxin B (Example 4); format: cell-based, Acinetobacter baumannii; settings: +0.06 μg/ml PB, 2nd experiment
[10] = system: A. baumannii A14; assay: Preliminary MBC without and with sub-inhibitory polymyxin B (Example 4); format: cell-based, Acinetobacter baumannii; settings: Acinetobacter baumannii, 2nd experiment, read-out: MBC
Outline: (§1)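 Bactericidal endpoint scored visually on plates incubated at 37° C (18-20 hours): the lowest concentration where growth fell about 90% versus the positive control, generally leaving one colony or none.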

[11] = system: A. baumannii A390; assay: as above; format: cell-based, Acinetobacter baumannii; settings: Acinetobacter baumannii, A390, A. baumannii A390, +0.06 μg/ml PB, 2nd experiment, read-out: MBC
Outline: as §1

[12] = system: A. baumannii A473; assay: as above; format: cell-based, Acinetobacter baumannii; settings: Acinetobacter baumannii, A473, A. baumannii A473, +0.06 μg/ml PB, 2nd experiment, read-out: MBC
Outline: as §1

[13] = system: A. baumannii NCTC 13301; assay: as above; format: cell-based, Acinetobacter baumannii; settings: Acinetobacter baumannii
Outline: as §1

[14] = system: A. baumannii A401; assay: MIC without and with sub-inhibitory polymyxin B (Example 4); format: cell-based, Acinetobacter baumannii; settings: for MIC: Acinetobacter baumannii
[15] = system: A. baumannii A401; assay: Preliminary MBC without and with sub-inhibitory polymyxin B (Example 4); format: cell-based, Acinetobacter baumannii; settings: Acinetobacter baumannii
[16] = system: A. baumannii A472; assay: MIC without and with sub-inhibitory polymyxin B (Example 4); format: cell-based, Acinetobacter baumannii; settings: 1st experiment
[17] = system: A. baumannii A472; assay: Preliminary MBC without and with sub-inhibitory polymyxin B (Example 4); format: cell-based, Acinetobacter baumannii; settings: Acinetobacter baumannii, A472, read-out: MBC +[…] PB, A. baumannii A472; +[…] polymyxin B; preliminary MBC; 1st experiment
[18] = system: A. baumannii A489; assay: MIC without and with sub-inhibitory polymyxin B (Example 4); format: cell-based, Acinetobacter baumannii; settings: for MIC without PB/MIC + PB: A. baumannii A489; for MIC: Acinetobacter baumannii
[19] = system: A. baumannii A489; assay: Preliminary MBC without and with sub-inhibitory polymyxin B (Example 4); format: cell-based, Acinetobacter baumannii; settings: Acinetobacter baumannii, preliminary MBC
[20] = system: A. baumannii NCTC 13301; assay: MIC without and with sub-inhibitory polymyxin B (Example 4); format: cell-based, Acinetobacter baumannii
[21] = system: A. baumannii NCTC 13301; assay: as above; format: cell-based, Acinetobacter baumannii; settings: A. baumannii NCTC 13301; +[…] PB; 2nd experiment
[22] = system: A. baumannii A14; assay: as above; format: cell-based, Acinetobacter baumannii; settings: 1st experiment
[23] = system: A. baumannii A14; assay: as above; format: cell-based, Acinetobacter baumannii; settings: 2nd experiment; for MIC: Acinetobacter baumannii, A14, A. baumannii A14, read-out: MIC
[24] = system: A. baumannii A14; assay: Preliminary MBC without and with sub-inhibitory polymyxin B (Example 4); format: cell-based, Acinetobacter baumannii; settings: A. baumannii A14, preliminary MBC, 1st experiment

Cc1c(-c2ccc(N)c(F)c2)ccn2c(=O)c(C(=O)O)cc(C3CC3)c12 [Compound 1, 8-(3-fluoro-4-amino-phenyl)-1-cyclopropyl-9-methyl-4-oxo-quinolizine-3-carboxylic acid]
≥128: MIC without PB/MIC + PB ([14]; A baumannii A 401, ratio, PB 0.06 μg/ml, 1st experiment) | MIC without PB/MIC + PB ([18]; ratio, PB […], 1st experiment)
32 µg/mL: MBC ([10]; A14, A. baumannii A14, without PB) | MIC ([22]; Acinetobacter baumannii, 24 h, without polymyxin B, read-out: MIC without PB) | MIC ([23]; without PB) | MBC ([24]; Acinetobacter baumannii, without polymyxin B, read-out: MBC without PB)
0.06 µg/mL: MBC ([10]; A14, A. baumannii A14, +0.06 μg/ml PB) | MBC ([13]; NCTC13301, read-out: MBC +[…] PB) | MIC +0.06 μg/ml PB ([22]; +0.06 μg/ml polymyxin B) | MIC ([23]; +0.06 μg/ml PB) | MBC +0.06 μg/ml PB ([24]; +0.06 μg/ml polymyxin B)
≤ 0.03 µg/mL: MIC ([2]; ATCC19606, A. baumannii ATCC 19606, +0.06 μg/ml PB, 2nd experiment, read-out: MIC) | MIC ([2]; ATCC19606, read-out: MIC +0.06 μg/ml PB, A. baumannii ATCC 19606, +0.06 μg/ml polymyxin B, 1st experiment) | MBC ([3]; ATCC19606, A. baumannii ATCC 19606, +0.06 μg/ml PB, 2nd experiment, read-out: MBC) | MBC ([3]; ATCC19606, read-out: MBC +0.06 μg/ml PB, A. baumannii ATCC 19606, +0.06 μg/ml polymyxin B, 1st experiment) | MIC ([4]; Acinetobacter baumannii, J2, read-out: MIC +[…] PB, A. baumannii J2, +[…] polymyxin B, 1st experiment) | MBC [5] | MIC ([6]; Acinetobacter, read-out: MIC +[…] PB, Acinetobacter spp. H064200250, +[…] polymyxin B, 1st experiment) | MIC ([9]; Acinetobacter baumannii, A390, A. baumannii A390, read-out: MIC) | MBC [11] | MBC ([13]; NCTC13301) | MIC ([14]; A401, A baumannii A 401, +0.06 μg/ml PB, 2nd experiment, read-out: MIC) | MIC ([14]; A401, read-out: MIC +0.06 μg/ml PB, A baumannii A 401, +0.06 μg/ml polymyxin B, 1st experiment) | MBC ([15]; A401, A baumannii A 401, +0.06 μg/ml PB, 2nd experiment, read-out: MBC) | MBC ([15]; A401, read-out: MBC +0.06 μg/ml PB, A baumannii A 401, +0.06 μg/ml polymyxin B, 1st experiment) | MIC ([16]; Acinetobacter baumannii, A472, read-out: MIC +[…] PB, A. baumannii A472, +[…] polymyxin B) | MBC [17] | MIC ([18]; A489, A. baumannii A489, +[…] PB, 2nd experiment, read-out: MIC) | MIC ([18]; A489, read-out: MIC +[…] PB, A. baumannii A489, +[…] polymyxin B, 1st experiment) | MBC ([19]; A489, A. baumannii A489, +[…] PB, 2nd experiment, read-out: MBC) | MBC ([19]; A489, read-out: MBC +[…] PB, A. baumannii A489, +[…] polymyxin B, 1st experiment) | MIC ([20]; Acinetobacter baumannii, NCTC13301, read-out: MIC +[…] PB)
≥512: MIC without PB/MIC + PB ([4]; +[…] PB, 2nd experiment) | MIC without PB/MIC + PB ([6]; Acinetobacter spp. H064200250 (OXA51), +[…] PB, 2nd experiment) | MIC without PB/MIC + PB ([9]; A. baumannii A390) | MIC without PB/MIC + PB ([18]; +[…] PB, 2nd experiment)
≥8: MIC without PB/MIC + PB ([2]; +0.06 μg/ml PB, 2nd experiment) | MIC without PB/MIC + PB ([2]; ratio, PB 0.06 μg/ml, 1st experiment)
≤0.03 to 2 µg/mL: MIC range with PB (0.25x MIC) Oct. 14, 2008 n = 11 ([1]; 2nd experiment, 0.06 μg/ml polymyxin B, all strains except the ATCC strain)
≥256: MIC without PB/MIC + PB ([4]; ratio, PB […], 1st experiment) | MIC without PB/MIC + PB ([6]; Acinetobacter spp. H064200250, ratio, PB […], 1st experiment) | MIC without PB/MIC + PB ([16]; A. baumannii A472, ratio, PB […])
512: MIC without PB/MIC + PB ([22]; ratio, PB 0.06 μg/ml) | MIC without PB/MIC + PB ([23]; A. baumannii A14, +0.06 μg/ml PB)
2 µg/mL: MIC ([7]; Acinetobacter baumannii, A329, A. baumannii A329, read-out: MIC) | MBC [8]
≥1024: MIC without PB/MIC + PB ([20]; A. baumannii NCTC 13301, ratio, PB […], 1st experiment) | MIC without PB/MIC + PB [21]
≤0.03 to 0.06 µg/mL: MIC range with PB (0.25x MIC) Oct. 1, 2008 n = 8 ([1]; 1st experiment, […] polymyxin B, ATCC 19606, A329, A390 and A473 not taken)
8: MIC without PB/MIC + PB ([7]; A. baumannii A329)
1 µg/mL: MBC [12]
